According to patent publication US12109196B2, “Non-sedating dexmedetomidine treatment regimens” (BioXcel Therapeutics, Inc., priority 2019, dated 2024):
Where a name gives a salt, the structure may show the parent alone. Read-outs that look alike come from different tables or passages of the source.

How the values were obtained:
[1] = test system: acute agitation associated with schizophrenia, schizoaffective disorder or schizophreniform disorder; settings: 2 hours post-dose
Description: PEC comprised 5 items associated with agitation: poor impulse control, tension, hostility, uncooperativeness, and excitement; each scored 1 (minimum) to 7 (maximum). The PEC, the sum of these 5 subscales, thus ranging from 5 to 35.
Efficacy Analyses: The primary efficacy endpoint of the study was the absolute change from baseline in PEC score at 120 mins (2 hours). The intent to treat population (ITT) was analyzed and consisted of all patients who took any study medication and who had both baseline and at least 1 efficacy assessment after dosing. Analyses were conducted using a restricted maximum likelihood repeated measures mixed model on change from baseline values with baseline as a covariate and timepoint, and its interaction with treatment groups as repeated measures using an unstructured covariance structure. Responder comparisons were made via Fisher's exact test.
There were 5 dose cohorts (20 μg, 60 μg, 80 μg, 120 μg and 180 μg) with 18 active patients (total of 90 patients) and 9 placebo patients (total of 45 patients) in each cohort. Active patients in each of the 5 dose cohorts were compared to placebo patients from all 5 cohorts (pooled placebo group).

[2] = Protocol: (§1) Patients 5, 7, 8 and 9 received placebo.
The level of dexmedetomidine in the plasma of patients was also measured over the time of infusion.

[3] = test system: subjects suffering from schizophrenia
Description: (§2) Another Key Objective of the study was to determine the reduction in the level of agitation, as determined by their PEC score, at the doses to achieve a RASS of −1.
as §1
(§3) CGI-I focused on the severity of agitation rather than the severity of the illness. • (4) After the infusion was stopped, the participants were judged for the suitability for discharge by the principal investigator or designee as witnessed by a return to their baseline level of alertness and awareness with no impairment in balance, gait, and reaction time as determined by the principal investigator or designee. Results (A) Efficacy Study RASS (Richmond Agitation-Sedation Scale)

[4] = test system: agitation in subjects suffering from schizophrenia
Description: as §2, §1, §3

Compound: Cc1cccc([C@H](C)c2cnc[nH]2)c1C [dexmedetomidine hydrochloride, (+) 4-(S)-[1-(2,3-dimethylphenyl)ethyl]-1H-imidazole]
- PANSS-PEC Total Score, Change from baseline, mean (SD) ([1]; 80 μg): −7.3
- PANSS-PEC Total Score, Change from baseline, mean (SD) ([1]; 120 μg): −9.2
- PANSS-PEC Total Score, Change from baseline, mean (SD) ([1]; 180 μg): −10.8
- Plasma level concentration ([2]; Patient 1 (Treatment), 0 Mins): BLQ
- Plasma level concentration ([2]; Patient 1 (Treatment), 15 Mins): 0.02245 ng/mL
- Plasma level concentration ([2]; Patient 1 (Treatment), 30 Mins): 0.01472 ng/mL
- Plasma level concentration ([2]; Patient 2 (Treatment), 0 Mins): BLQ
- Plasma level concentration ([2]; Patient 2 (Treatment), 30 Mins): BLQ
- Plasma level concentration ([2]; Patient 3 (Treatment), 30 Mins): BLQ
- Plasma level concentration ([2]; Patient 3 (Treatment), 45 Mins): BLQ
- Plasma level concentration ([2]; Patient 4 (Treatment), 0 Mins): BLQ
- Plasma level concentration ([2]; Patient 4 (Treatment), 15 Mins): BLQ
- Plasma level concentration ([2]; Patient 4 (Treatment), 30 Mins): BLQ
- Plasma level concentration ([2]; Patient 4 (Treatment), 45 Mins): BLQ
- Plasma level concentration ([2]; Patient 4 (Treatment), 60 Mins): BLQ
- Plasma level concentration ([2]; Patient 4 (Treatment), 75 Mins): BLQ
- Plasma level concentration ([2]; Patient 4 (Treatment), 90 Mins): 0.0443 ng/mL
- Plasma level concentration ([2]; Patient 11 (Treatment), 0 Mins): BLQ
- Plasma level concentration ([2]; Patient 11 (Treatment), 15 Mins): 0.04101 ng/mL
- Plasma level concentration ([2]; Patient 11 (Treatment), 30 Mins): 0.06291 ng/mL
- Plasma level concentration ([2]; Patient 11 (Treatment), 45 Mins): 0.12407 ng/mL
- Plasma level concentration ([2]; Patient 11 (Treatment), 60 Mins): 0.15047 ng/mL
- Plasma level concentration ([2]; Patient 12 (Treatment), 0 Mins): BLQ
- Plasma level concentration ([2]; Patient 12 (Treatment), 15 Mins): BLQ
- Plasma level concentration ([2]; Patient 12 (Treatment), 30 Mins): 0.04487 ng/mL
- Plasma level concentration ([2]; Patient 12 (Treatment), 45 Mins): 0.05051 ng/mL
- Plasma level concentration ([2]; Patient 12 (Treatment), 60 Mins): 0.1086 ng/mL
- Plasma level concentration ([2]; Patient 12 (Treatment), 75 Mins): 0.15854 ng/mL
- Plasma level concentration ([2]; Patient 12 (Treatment), 90 Mins): 0.23783 ng/mL
- Plasma level concentration ([2]; Patient 12 (Treatment), 105 Mins): 0.2673 ng/mL
- Plasma level concentration ([2]; Patient 14 (Treatment), 0 Mins): BLQ
- Plasma level concentration ([2]; Patient 14 (Treatment), 15 Mins): BLQ
- Plasma level concentration ([2]; Patient 14 (Treatment), 30 Mins): 0.05266 ng/mL
- Plasma level concentration ([2]; Patient 14 (Treatment), 45 Mins): 0.04653 ng/mL
- Plasma level concentration ([2]; Patient 14 (Treatment), 60 Mins): 0.4063 ng/mL
- Plasma level concentration ([2]; Patient 16 (Treatment), 0 Mins): BLQ
- Plasma level concentration ([2]; Patient 16 (Treatment), 15 Mins): 0.00256 ng/mL
- Plasma level concentration ([2]; Patient 16 (Treatment), 30 Mins): 0.01559 ng/mL
- Plasma level concentration ([2]; Patient 16 (Treatment), 45 Mins): 0.04117 ng/mL
- Plasma level concentration ([2]; Patient 16 (Treatment), 60 Mins): 0.06788 ng/mL
- Plasma level concentration ([2]; Patient 16 (Treatment), 75 Mins): 0.07226 ng/mL
- Plasma level concentration ([2]; Patient 17 (Treatment), 0 Mins): BLQ
- Plasma level concentration ([2]; Patient 17 (Treatment), 15 Mins): 0.01587 ng/mL
- Plasma level concentration ([2]; Patient 17 (Treatment), 30 Mins): BLQ
- Plasma level concentration ([2]; Patient 17 (Treatment), 45 Mins): 0.03993 ng/mL
- Plasma level concentration ([2]; Patient 18 (Treatment), 0 Mins): BLQ
- Plasma level concentration ([2]; Patient 18 (Treatment), 15 Mins): 0.04836 ng/mL
- Plasma level concentration ([2]; Patient 18 (Treatment), 30 Mins): 0.05453 ng/mL
- Patients (out of 10) in the treatment arm who achieved a RASS score of at least −1 ([3]; IV infusion from 0.2 mcg/kg/hr rising 0.1 mcg/kg/hr every 30 minutes): 9
- RASS value after infusion start ([3]; Patient 1 (treatment arm), 0 minutes): 1
- RASS value after infusion start ([3]; Patient 1 (treatment arm), 15 minutes): −2
- RASS value after infusion start ([3]; Patient 2 (treatment arm), 0 minutes): 3
- RASS value after infusion start ([3]; Patient 2 (treatment arm), 30 minutes): 0
- RASS value after infusion start ([3]; Patient 2 (treatment arm), 60 minutes): 0
- RASS value after infusion start ([3]; Patient 2 (treatment arm), 75 minutes): −1
- RASS value after infusion start ([3]; Patient 3 (treatment arm), 0 minutes): 1
- RASS value after infusion start ([3]; Patient 3 (treatment arm), 30 minutes): 0
- RASS value after infusion start ([3]; Patient 3 (treatment arm), 45 minutes): 0
- RASS value after infusion start ([3]; Patient 3 (treatment arm), 60 minutes): −1
- RASS value after infusion start ([3]; Patient 4 (treatment arm), 0 minutes): 1
- RASS value after infusion start ([3]; Patient 4 (treatment arm), 30 minutes): 0
- RASS value after infusion start ([3]; Patient 4 (treatment arm), 60 minutes): 0
- RASS value after infusion start ([3]; Patient 4 (treatment arm), 90 minutes): 0
- RASS value after infusion start ([3]; Patient 4 (treatment arm), 120 minutes): 0
- RASS value after infusion start ([3]; Patient 4 (treatment arm), […]): 0
- RASS value after infusion start ([3]; Patient 11 (treatment arm), 0 minutes): 1
- RASS value after infusion start ([3]; Patient 11 (treatment arm), 30 minutes): 0
- RASS value after infusion start ([3]; Patient 11 (treatment arm), 60 minutes): 0
- RASS value after infusion start ([3]; Patient 11 (treatment arm), 75 minutes): −1
- RASS value after infusion start ([3]; Patient 12 (treatment arm), 0 minutes): 1
- RASS value after infusion start ([3]; Patient 12 (treatment arm), 30 minutes): 0
- RASS value after infusion start ([3]; Patient 12 (treatment arm), 60 minutes): 0
- RASS value after infusion start ([3]; Patient 12 (treatment arm), 90 minutes): 0
- RASS value after infusion start ([3]; Patient 12 (treatment arm), 120 minutes): −1
- RASS value after infusion start ([3]; Patient 14 (treatment arm), 0 minutes): 1
- RASS value after infusion start ([3]; Patient 14 (treatment arm), 30 minutes): 0
- RASS value after infusion start ([3]; Patient 14 (treatment arm), 60 minutes): 0
- RASS value after infusion start ([3]; Patient 14 (treatment arm), 75 minutes): −1
- RASS value after infusion start ([3]; Patient 16 (treatment arm), 0 minutes): 1
- RASS value after infusion start ([3]; Patient 16 (treatment arm), 30 minutes): 0
- RASS value after infusion start ([3]; Patient 16 (treatment arm), 60 minutes): 0
- RASS value after infusion start ([3]; Patient 16 (treatment arm), 75 minutes): −1
- RASS value after infusion start ([3]; Patient 17 (treatment arm), 0 minutes): 1
- RASS value after infusion start ([3]; Patient 17 (treatment arm), 30 minutes): 0
- RASS value after infusion start ([3]; Patient 17 (treatment arm), 45 minutes): −1
- RASS value after infusion start ([3]; Patient 18 (treatment arm), 0 minutes): 0
- RASS value after infusion start ([3]; Patient 18 (treatment arm), 15 minutes): −1
- Patients (out of 10) in the treatment arm with agitation reduced to a PEC score of 7 or below ([4]; IV infusion): 9
- Subjects (of 10) with >=50% reduction in PEC score ([4]; IV route): 7
- PEC value after infusion start ([4]; Patient 1 (treatment arm), 0 Mins): 9
- PEC value after infusion start ([4]; Patient 1 (treatment arm), 15 Mins): 5
- PEC value after infusion start ([4]; Patient 2 (treatment arm), 0 Mins): 16
- PEC value after infusion start ([4]; Patient 2 (treatment arm), 15 Mins): 13
- PEC value after infusion start ([4]; Patient 2 (treatment arm), 30 Mins): 12
- PEC value after infusion start ([4]; Patient 2 (treatment arm), 45 Mins): 11
- PEC value after infusion start ([4]; Patient 2 (treatment arm), 60 Mins): 9
- PEC value after infusion start ([4]; Patient 2 (treatment arm), 75 Mins): 7
- PEC value after infusion start ([4]; Patient 3 (treatment arm), 0 Mins): 12
- PEC value after infusion start ([4]; Patient 3 (treatment arm), 15 Mins): 12
- PEC value after infusion start ([4]; Patient 3 (treatment arm), 30 Mins): 10
- PEC value after infusion start ([4]; Patient 3 (treatment arm), 45 Mins): 7
- PEC value after infusion start ([4]; Patient 3 (treatment arm), 60 Mins): 6
- PEC value after infusion start ([4]; Patient 4 (treatment arm), 0 Mins): 9
- PEC value after infusion start ([4]; Patient 4 (treatment arm), 15 Mins): 9
- PEC value after infusion start ([4]; Patient 4 (treatment arm), 30 Mins): 8
- PEC value after infusion start ([4]; Patient 4 (treatment arm), 45 Mins): 8
- PEC value after infusion start ([4]; Patient 4 (treatment arm), 60 Mins): 7
- PEC value after infusion start ([4]; Patient 4 (treatment arm), 75 Mins): 7
- PEC value after infusion start ([4]; Patient 4 (treatment arm), 90 Mins): 7
- PEC value after infusion start ([4]; Patient 4 (treatment arm), 105 Mins): 7
- PEC value after infusion start ([4]; Patient 4 (treatment arm), 120 Mins): 7
- PEC value after infusion start ([4]; Patient 4 (treatment arm), 135 Mins): 7
- PEC value after infusion start ([4]; Patient 11 (treatment arm), 0 Mins): 13
- PEC value after infusion start ([4]; Patient 11 (treatment arm), 15 Mins): 13
- PEC value after infusion start ([4]; Patient 11 (treatment arm), 30 Mins): 11
- PEC value after infusion start ([4]; Patient 11 (treatment arm), 45 Mins): 9
- PEC value after infusion start ([4]; Patient 11 (treatment arm), 60 Mins): 9
- PEC value after infusion start ([4]; Patient 11 (treatment arm), 75 Mins): 7
- PEC value after infusion start ([4]; Patient 12 (treatment arm), 0 Mins): 13
- PEC value after infusion start ([4]; Patient 12 (treatment arm), 15 Mins): 13
- PEC value after infusion start ([4]; Patient 12 (treatment arm), 30 Mins): 13
- PEC value after infusion start ([4]; Patient 12 (treatment arm), 45 Mins): 10
- PEC value after infusion start ([4]; Patient 12 (treatment arm), 60 Mins): 10
- PEC value after infusion start ([4]; Patient 12 (treatment arm), 75 Mins): 8
- PEC value after infusion start ([4]; Patient 12 (treatment arm), 90 Mins): 6
- PEC value after infusion start ([4]; Patient 12 (treatment arm), 105 Mins): 5
- PEC value after infusion start ([4]; Patient 14 (treatment arm), 0 Mins): 10
- PEC value after infusion start ([4]; Patient 14 (treatment arm), 15 Mins): 9
- PEC value after infusion start ([4]; Patient 14 (treatment arm), 30 Mins): 6
- PEC value after infusion start ([4]; Patient 14 (treatment arm), 45 Mins): 6
- PEC value after infusion start ([4]; Patient 14 (treatment arm), 60 Mins): 5
- PEC value after infusion start ([4]; Patient 14 (treatment arm), 75 Mins): 5
- PEC value after infusion start ([4]; Patient 16 (treatment arm), 0 Mins): 10
- PEC value after infusion start ([4]; Patient 16 (treatment arm), 15 Mins): 9
- PEC value after infusion start ([4]; Patient 16 (treatment arm), 30 Mins): 6
- PEC value after infusion start ([4]; Patient 16 (treatment arm), 45 Mins): 6
- PEC value after infusion start ([4]; Patient 16 (treatment arm), 60 Mins): 7
- PEC value after infusion start ([4]; Patient 16 (treatment arm), 75 Mins): 5
- PEC value after infusion start ([4]; Patient 17 (treatment arm), 0 Mins): 10
- PEC value after infusion start ([4]; Patient 17 (treatment arm), 15 Mins): 8
- PEC value after infusion start ([4]; Patient 17 (treatment arm), 30 Mins): 7
- PEC value after infusion start ([4]; Patient 17 (treatment arm), 45 Mins): 5
